From ChEMBL document CHEMBL3600345, “Docking of competitive inhibitors to the P2X7 receptor family reveals key differences responsible for changes in response between rat and human” (Bioorg Med Chem Lett, 2015)

What was measured:
[1] = target: T1, P2X purinoceptor 7 (Homo sapiens, UniProt Q99572); experiment: Inhibition of human P2X7 receptor
T1 sequence (Q99572 whole entry): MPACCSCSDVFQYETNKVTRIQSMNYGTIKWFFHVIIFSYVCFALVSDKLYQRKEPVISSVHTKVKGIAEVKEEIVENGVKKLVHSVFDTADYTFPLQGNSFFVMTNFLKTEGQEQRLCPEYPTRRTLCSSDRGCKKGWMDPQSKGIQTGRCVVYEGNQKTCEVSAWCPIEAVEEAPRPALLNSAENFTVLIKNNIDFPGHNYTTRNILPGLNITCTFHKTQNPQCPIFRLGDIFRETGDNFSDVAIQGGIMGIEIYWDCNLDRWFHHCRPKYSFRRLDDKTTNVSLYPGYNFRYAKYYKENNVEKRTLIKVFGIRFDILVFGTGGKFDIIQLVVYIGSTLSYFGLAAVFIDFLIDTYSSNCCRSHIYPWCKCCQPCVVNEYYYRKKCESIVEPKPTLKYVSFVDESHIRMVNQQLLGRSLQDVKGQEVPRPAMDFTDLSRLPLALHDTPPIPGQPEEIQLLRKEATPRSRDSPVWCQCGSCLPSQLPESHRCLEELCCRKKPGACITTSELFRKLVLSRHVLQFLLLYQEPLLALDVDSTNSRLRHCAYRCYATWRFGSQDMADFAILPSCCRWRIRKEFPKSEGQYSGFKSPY

[2] = target: T2, P2X purinoceptor 7 (Rattus norvegicus, UniProt Q64663); experiment: Inhibition of rat P2X7 receptor
T2 sequence (Q64663 whole entry): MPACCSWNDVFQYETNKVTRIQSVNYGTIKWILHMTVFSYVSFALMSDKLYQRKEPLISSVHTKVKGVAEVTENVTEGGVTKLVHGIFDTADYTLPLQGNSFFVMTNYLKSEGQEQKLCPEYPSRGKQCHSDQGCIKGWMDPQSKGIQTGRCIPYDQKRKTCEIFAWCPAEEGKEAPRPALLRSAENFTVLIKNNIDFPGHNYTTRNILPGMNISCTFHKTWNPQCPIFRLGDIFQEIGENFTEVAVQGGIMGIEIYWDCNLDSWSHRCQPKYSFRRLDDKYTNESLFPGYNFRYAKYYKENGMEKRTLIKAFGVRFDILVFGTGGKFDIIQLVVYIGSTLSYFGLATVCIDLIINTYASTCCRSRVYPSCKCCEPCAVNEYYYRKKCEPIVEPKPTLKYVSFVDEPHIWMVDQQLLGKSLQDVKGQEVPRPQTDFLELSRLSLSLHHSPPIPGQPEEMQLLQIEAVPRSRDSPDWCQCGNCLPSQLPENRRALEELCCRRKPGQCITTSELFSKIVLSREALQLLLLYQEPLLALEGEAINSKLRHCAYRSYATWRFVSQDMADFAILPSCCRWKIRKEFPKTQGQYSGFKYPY

[3] = target: T3, P2X7 purinoceptor (Canis lupus familiaris, UniProt Q64F92); experiment: Inhibition of dog P2X7 receptor
T3 sequence (Q64F92 whole entry): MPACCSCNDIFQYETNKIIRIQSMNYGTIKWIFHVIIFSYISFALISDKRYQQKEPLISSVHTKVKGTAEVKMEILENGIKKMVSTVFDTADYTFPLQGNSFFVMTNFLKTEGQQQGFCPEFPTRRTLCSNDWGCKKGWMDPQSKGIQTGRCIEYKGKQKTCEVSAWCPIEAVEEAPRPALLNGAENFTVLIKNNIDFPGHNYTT

[4] = target: T4, P2X purinoceptor (Cavia porcellus, UniProt A9QW74); experiment: Inhibition of guinea pig P2X7 receptor
T4 sequence (A9QW74 whole entry): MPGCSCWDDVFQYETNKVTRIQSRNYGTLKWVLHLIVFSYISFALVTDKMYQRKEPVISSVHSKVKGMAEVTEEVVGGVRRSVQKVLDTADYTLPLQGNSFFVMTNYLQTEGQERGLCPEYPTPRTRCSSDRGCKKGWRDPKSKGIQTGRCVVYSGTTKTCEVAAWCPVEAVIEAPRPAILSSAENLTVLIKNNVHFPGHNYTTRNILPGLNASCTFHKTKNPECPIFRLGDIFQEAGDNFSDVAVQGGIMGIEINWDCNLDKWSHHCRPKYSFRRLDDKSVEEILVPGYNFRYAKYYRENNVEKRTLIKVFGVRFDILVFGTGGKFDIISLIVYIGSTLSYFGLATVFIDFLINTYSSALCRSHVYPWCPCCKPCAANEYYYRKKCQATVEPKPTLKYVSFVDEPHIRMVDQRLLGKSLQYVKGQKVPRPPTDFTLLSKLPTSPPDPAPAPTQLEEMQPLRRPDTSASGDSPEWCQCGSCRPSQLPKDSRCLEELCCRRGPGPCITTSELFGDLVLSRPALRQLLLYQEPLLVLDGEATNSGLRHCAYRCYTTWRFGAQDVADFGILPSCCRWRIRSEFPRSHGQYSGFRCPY

[5] = Inhibition of rhesus macaque P2X7 receptor; parameters: species or system Macaca mulatta

| IC50 [1] [nM] | IC50 [2] [nM] | IC50 [3] [nM] | IC50 [4] [nM] | IC50 [5] [nM] | Structure (SMILES) |
| --- | --- | --- | --- | --- | --- |
| 100 | > 100000 | 10 | 130 | 86 | CN([C@@H](Cc1ccc(OS(=O)(=O)c2cccc3cnccc23)cc1)C(=O)N1CCN(c2ccccc2)CC1)S(=O)(=O)c1cccc2cnccc12 |
| 31 | > 100000 |  |  | 23 | O=C1CSC(=O)N1C(CCc1ccncc1)COc1ccc(-c2cccc([N+](=O)[O-])c2)cc1 (stereo not given) |

| Structure (SMILES) | IC50 [1] [nM] | IC50 [2] [nM] | IC50 [3] [nM] | IC50 [4] [nM] | IC50 [5] [nM] |
| --- | --- | --- | --- | --- | --- |
| C[S+]([O-])c1ccc(-c2nc(-c3ccncc3)c(-c3ccc(F)cc3)[nH]2)cc1 (stereo not given) [SB-203580] | 5000 | > 30000 |  |  |  |
